Laboratory results taken from patent US20220362249A1, “METHODS FOR TREATING […]” (PTC Therapeutics MP, Inc., priority 2019, published 2022).
Structures can show the parent of a compound that is named as a salt.

What was measured:
[1] = test system: phenylalanine plasma concentrations; details: cited from earlier work
[2] = test system: blood Phe; experiment: Reduction of blood Phe in patients with PKU, randomized crossover of PTC923 vs sapropterin dihydrochloride; format: in vivo, human; details: for Mean (SD) blood Phe, At baseline: 20 mg/kg period, Day 1 pre-dose; for Least squares mean (SE) change from baseline in blood Phe / Mean (SD) blood Phe, Change / Mean (SD) blood Phe, On treatment: 20 mg/kg/day oral, 7 days; for Mean (SD) blood Phe, On treatment: mean of days 3, 5 and 7
Method: Following screening for eligibility, a 7-day run-in period commenced. Patients then received 7 days of once-daily oral treatment with either PTC923 20 mg/kg/day (“low dose”), or PTC923 60 mg/kg/day or sapropterin dihydrochloride, in a random order. PTC923 (formerly CNSA-001) is oral sepiapterin. Each patient was randomized to one of six treatment sequences (FIG. 2). The randomization in six different treatment sequences was intended to minimize carry over effect, treatment period effect, patient fatigue, and natural fluctuations in blood Phe levels. A 7-day washout period separated each active treatment period. Patients were asked to maintain their usual pre-study diet, including consumption of amino acid mixtures if prescribed, and were monitored throughout the study by a metabolic dietician.
Blood samples for measurement of Phe were taken on 7, 5, 3, and 1 days before randomization. During treatment periods, blood was taken pre-dose for day 1 and post-dose for days 3, 5 and 7. During the washout periods, blood was taken for measurement of Phe on days 1, 3, 5, and 7. All samples were taken under fasting conditions or no earlier than 3 hours following a meal and at the same time of day. Blood Phe was measured using a validated LC-MS-MS technique of dried blood sampling via Volumetric Absorptive Microsampling (VAMS®) using Mitra® 4-sampler clamshells, at a central bioanalytical laboratory (Agilex Biolabs Pty Ltd).
The main objective of the study was to assess the efficacy of PTC923 measured as the mean blood Phe change from baseline. The efficacy population consisted of all patients who were randomized and had blood Phe measurements before treatment and at days 3, 5 and 7 of treatment from at least one treatment period. The safety population consisted of all patients who were randomized and who received any dose of study treatment. The sample size calculation was based on an all-comers, placebo-controlled regulatory study of sapropterin with an observed mean decrease in blood Phe of 99 μmol/L and standard deviation of 220 μmol/L, and assumed a true mean decrease in blood Phe of 300 μmol/L with 80% power utilizing a 2-sided α of 0.05.
Response to PTC923 was evaluated by measuring the mean change from baseline in blood Phe (calculated as the mean of measurements at days 3, 5 and 7 of each treatment period). Day 1 pre-dose blood Phe concentrations for each treatment period served as the individual patient specific baseline for that period.
The change from baseline in blood Phe of each treatment period was modelled using a linear mixed model for repeated measures (MMRM). The efficacy model included fixed effects for baseline for each treatment period, treatment group, sequence, period, and a random subject effect within each sequence, with a first order autoregressive AR (1) covariance structure. No unplanned covariates were included.
Pairwise comparisons in changes from baseline in Phe were performed between each PTC923 treatment and sapropterin treatment by calculating the least squares means with Dunnet's method of adjustment for multiple comparisons. The estimated change in blood Phe levels, their standard errors (SE) and associated p-values were calculated for each pairwise comparison. Dunnet's method of adjustment was used to account for the multiple comparisons of the test groups against the control group. This adjustment ensured that the overall Type I error rate under the null hypothesis was maintained despite multiple test groups being compared to the single control group.
The overall mean changes in blood Phe for each treatment were calculated and the standard deviations (SD) were determined.
A prespecified sensitivity analysis excluded treatment periods where baseline Phe was <300 μmol/L and a responder analysis looked at patients with baselines ≥300 μmol/L who responded to sapropterin and/or to PTC923 treatment by ≥20% reduction.

[3] = Adverse events in patients with PKU on PTC923 or sapropterin dihydrochloride; format: in vivo, human; details: 20 mg/kg
Source text: PTC923 safety was monitored and adverse events (AEs) were coded using the Medical Dictionary for Regulatory Activities (MedDRA®) version 21.0. Treatment-emergent adverse events (TEAEs) were defined as AE that began on or after first dose of study drug. A TEAE was associated with the study treatment currently being received, or the last study treatment before its onset. A treatment-related TEAE was, in the judgment of the investigator possibly, probably or definitely related to treatment. A serious AE (SAE) was defined as resulting in death, life-threatening AE, inpatient hospitalization or prolongation of existing hospitalization, a persistent or significant disability/incapacity or a substantial disruption of the ability to conduct normal life functions, or a congenital anomaly/birth defect.

[4] = test system: blood Phe; details: standard deviation of 220 μmol/L; cited from earlier work
[5] = Subjects with classical PKU (N = 11)

**Q.** For `C[C@H](O)[C@H](O)[C@H]1CNc2nc(N)[nH]c(=O)c2N1` [sapropterin dihydrochloride, reference compound], which “Classical PKU subjects that respond to treatment (historically)” value [1] is on record?
**A.** Its value is “about 10%”.

**Q.** What about the “Proportion of patients achieving blood Phe <360 μmol/L” value ([2]; 20 mg/kg, n of 24) of the same molecule?
**A.** The value was 42%.

**Q.** And the “Mean (SD) blood Phe, At baseline” value ([2]; All subjects (N = 24))?
**A.** The value was 710.4 (370.0) μmol/L.

**Q.** What about the “Least squares mean (SE) change from baseline in blood Phe” value (from here on “Least squares mean (SE) change”) ([2]; All subjects (N = 24)) of the same molecule?
**A.** Its value is −91.5 (41.7) μmol/L.

**Q.** And the “Mean (SD) blood Phe, Change” value ([2]; All subjects (N = 24))?
**A.** Its value is −90.8 (226.9) μmol/L.

**Q.** What about the “Mean (SD) blood Phe, On treatment” value ([2]; All subjects (N = 24)) of the same molecule?
**A.** The value was 619.5 (475.3) μmol/L.

**Q.** What about the “Least squares mean change from baseline in blood Phe to first Phe measurement (Day 3)” value ([2]; Day 3, 20 mg/kg) of the same molecule?
**A.** The value was -72.3 µmol/L.

**Q.** What about the “Mean (SD) blood Phe, At baseline” value [2, 5] of the same molecule?
**A.** The value was 903.5 (422.5) μmol/L.

**Q.** And the “Mean (SD) blood Phe, Change” value [2, 5]?
**A.** Its value is 10.7 (221.6) μmol/L.

**Q.** And the “Least squares mean (SE) change” value ([2]; Subjects with classical PKU (N = 11), dihydrochloride, 20 mg/kg/day)?
**A.** The value was -2.8 µmol/L.

**Q.** And the “Least squares mean (SE) change” value ([2]; Subjects with classical PKU (N = 11), listed as Sapropterin dihydrochloride, dihydrochloride, 20 mg/kg/day)?
**A.** Its value is −2.8 (62.0) μmol/L.

**Q.** And the “Mean (SD) blood Phe, On treatment” value [2, 5]?
**A.** Its value is 914.2 (538.7) μmol/L.

**Q.** And the “Least squares mean change from baseline in blood Phe” value ([2]; group of 12 responders (Phe reduction ≥20%, baseline ≥300 μmol/L), 20 mg/kg)?
**A.** Its value is -139.70 µmol/L.

**Q.** What about the “Non-classical subjects normalized (blood phenylalanine less than 120 micromole per liter)” value ([2]; non-classical subjects) of the same molecule?
**A.** The value was 15.4%.

**Q.** And the “Patients reporting any adverse event” value [3]?
**A.** The value was 21%.

**Q.** What about the “Patients reporting severe AE” value [3] of the same molecule?
**A.** Its value is 0%.

**Q.** What about the “Patients reporting treatment-related AE” value [3] of the same molecule?
**A.** Its value is 0%.

**Q.** What about the “Headache (all-cause AE)” value ([3]; transient) of the same molecule?
**A.** Its value is 4%.

**Q.** And the “Observed mean decrease in blood Phe” value [4]?
**A.** Its value is 99 µmol/L.
